Key:
RAW 264.7 cells [1] = experiment: Suppressive activity for NO production induced by LPS (NO2- in medium); type: cell-based; details: compound a 1.5, 3, 6, 12 μM; compound b 3, 6, 12, 24 μM; LPS 15 hours
Method: RAW 264.7 cells (ATCC TIB 71) were suspended in Dulbecco's modified Eagle's medium (manufactured by Bio Whittaker, 12-604F) containing 10% fetal bovine serum (manufactured by GIBCO), so as to have a concentration of 4×10^5 cells/ml, and the suspension was put to each well of a 48-well microtiter plate in an amount of 500 μl per well. The cells were cultured at 37° C. in the presence of 5% carbon dioxide gas. After 24 hours, the medium was exchanged with Dulbecco's modified Eagle's medium (manufactured by Bio Whittaker, 12-917F) containing 10% fetal bovine serum (manufactured by GIBCO), 2 mM L-glutamine (manufactured by Life Tech Oriental Co., Ltd., 25030-149) without containing phenol red. The compound a (dimethyl sulfoxide solution) was added to each well so as to have a concentration of 1.5, 3, 6, or 12 μM, or the compound b (dimethyl sulfoxide solution) was added to each well so as to have a concentration of 3, 6, 12, or 24 μM. […] Thereafter, the concentration of NO2^− which was produced by oxidation of NO in the medium was determined. […] Thereafter, absorbance at 540 nm was determined. The concentration of NO2 − in the medium was calculated from a calibration curve prepared from known concentrations of NaNO2. […]

RAW 264.7 cells [2] = experiment: Suppressive activity for IL-6 production induced by LPS (sandwich enzyme immunoassay); type: cell-based; details: compound a 1.5, 3, 6, 12 μM; compound b 3, 6, 12, 24 μM; LPS 15 hours
Method: RAW 264.7 cells (ATCC TIB 71) were suspended in Dulbecco's modified Eagle's medium (manufactured by Bio Whittaker, 12-604F) containing 10% fetal bovine serum (manufactured by GIBCO) so as to have a concentration of 4×10^5 cells/ml, and the suspension was put to each well of a 48-well microtiter plate in an amount of 500 μl per well. The cells were cultured at 37° C. in the presence of 5% carbon dioxide gas. After 24 hours, the medium was exchanged with Ultra CHO medium (manufactured by Bio Whittaker, 12-724Q). The compound a (dimethyl sulfoxide solution) was added to each well so as to have a concentration of 1.5, 3, 6, or 12 μM, or the compound b (dimethyl sulfoxide solution) was added to each well so as to have a concentration of 3, 6, 12, or 24 μM. After additional 4 hours of culture, a 100 μg/ml aqueous lipopolysaccharide (LPS, manufactured by Sigma, L-2010) solution was added to each well in an amount of 5 μl per well, and the cells were cultured for 15 hours. Thereafter, the supernatant of the medium was collected. The content of interleukin 6 (IL-6) in the supernatant of the medium was determined with a sandwich enzyme immunoassay (manufactured by genzyme TECHNE, 4922). In addition, there were set a group without addition of the compounds a and b as a positive control, and a group without addition of LPS as a negative control. All of the determinations were carried out twice. […]

[3] = biological target: T1, aldose reductase derived from human muscle cells (Homo sapiens, UniProt P15121); experiment: Inhibitory activity for aldose reductase (NADPH absorbance at 340 nm, methylglyoxal substrate); type: biochemical
T1 construct: purchased Wako Pure Chemical Industries
Method: (1) Inhibitory activities for aldose reductase of the compounds a and b were measured by the following method. Twenty microliters of 100 mM methylglyoxal was added to 10 μl of the compound a or b (dissolved in a 50% aqueous dimethyl sulfoxide solution) as a sample, 100 μl of 0.2 M phosphate buffer (pH 6.2), 20 μl of 1 mM NADPH (phosphate buffer), 10 μl of a solution of aldose reductase derived from human muscle cells (0.1 U/ml, manufactured by Wako Pure Chemical Industries, phosphate buffer). After 30 seconds passed, change in absorbance of NADPH at 340 nm was determined for 180 seconds. A 50% aqueous dimethyl sulfoxide solution was used as a negative control in place of the sample. In addition, the absorbance was determined using distilled water as a blank of each sample in place of the methylglyoxal solution. The found values are expressed as an average of the values in two experimental values. The inhibitory ratio (%) for aldose reductase was calculated in accordance with the following formula. Inhibitory Ratio (%)=[1-[(ΔAs−ΔAsb)/(ΔAc−ΔAcb)]]×100
Here, ΔAs and ΔAc are changes in absorbance per 1 minute of a sample solution, and a negative control solution, respectively, and ΔAsb and ΔAcb are changes in absorbance per 1 minute of blank of a sample solution, and a negative control solution, respectively.

[4] = tested on: PC12 cells (CRL-1721) derived from rat adrenal medulla pheochromocytoma, differentiated into neuron-like cells; experiment: Neuronal protection from NO toxicity (SNP) in NGF-differentiated PC12 cells, MTT; type: cell-based; details: 10 μM compound b, 50 μM SNP, 48 hours, control without compound and SNP = 100, SNP alone 59.1
Method: (1) The suppressive activity for NO toxicity of the compound b was assayed in accordance with the following method. PC12 cells (CRL-1721) derived from rat adrenal medulla pheochromocytoma were suspended in DMEM medium (manufactured by Bio Whittaker) containing 10% fetal bovine serum (manufactured by Bio Whittaker) so as to have a concentration of 1×10^5 cells/ml. The suspension was put in each well of a 96-well plate in an amount of 0.1 ml per well, and the cells were cultured at 37° C. in the presence of 5% carbon dioxide gas. After the cells were cultured for 24 hours, the medium was removed and exchanged with DMEM medium containing 10 ng/ml of NGF (manufactured by TAKARA BIO Inc.) and 10% fetal bovine serum. PC12 cells were cultured for 3 days, and differentiated into neuron-like cells. After the culture, the medium was removed and exchanged with DMEM medium containing 10 μM of the compound b, 10 ng/ml of NGF, and 10% fetal bovine serum. […] Solubilized formazan was determined at a wavelength of 590 nm (control wavelength of 630 nm). […] Viability ratio (%) of cells was calculated from MTT found values of each test group by defining the MTT value of the control group (group not containing the compound b and SNP) as 100.

[5] = tested on: PC12 cells derived from rat adrenal medulla pheochromocytoma; experiment: Suppressive activity for NO toxicity (SNP) in PC12 cells, MTT; type: cell-based; details: 10 μM compound b, 50 μM SNP, 66 hours, control without compound and SNP = 100, SNP alone 48.1
Method: (2) The suppressive activity of the compound b for NO toxicity was assayed in accordance with the following method. PC12 cells derived from rat adrenal medulla pheochromocytoma were suspended in DMEM medium containing 10% fetal bovine serum so as to have a concentration of 1.5×10^5 cells/ml. The suspension was put to each well of a 96-well plate in an amount of 0.1 ml per well, and cultured at 37° C. in the presence of 5% carbon dioxide gas. After 24 hours of culture, the medium was removed, and exchanged with DMEM medium containing 10 μM of the compound b and 10% fetal bovine serum. After the cells were cultured for 2 hours, SNP was added thereto so as to have a concentration of 50 μM, and the cells were cultured for 66 hours. After the termination of the culture, the MTT determination was carried out in the same manner as in item (1) of Example 4, and the viability ratio (%) of cells was calculated. All of the determinations were carried out three times.

Compound	Suppression of induction for NO production by LPS (NO2- concentration in medium, FIG. 7) (RAW 264.7 cells [1])	Inhibition of induction of IL-6 production by LPS (IL-6 in supernatant, FIG. 8) (RAW 264.7 cells [2])	Inhibitory Ratio (%) for Aldose Reductase ([3]; final concentration 2.5 μM) [%]	Inhibitory Ratio (%) for Aldose Reductase ([3]; final concentration 5 μM) [%]	Inhibitory Ratio (%) for Aldose Reductase ([3]; final concentration 10 μM) [%]	Inhibitory Ratio (%) for Aldose Reductase ([3]; final concentration 20 μM) [%]	Viability Ratio (%) of Cells [4] [%]	Viability Ratio (%) of Cells [5] [%]
CC12CCC(O)C(C)(C)C1Cc1c(O)ccc(C(=O)/C=C/c3ccc(O)cc3)c1O2 (single isomer, unassigned) [Compound a, (E)-1-(5,6,7,8,8a,10a-hexahydro-1,7-dihydroxy-8,8,10a-trimethyl-9H-xanthen-4-yl)-3-(4-hydroxyphenyl)-2-propen-1-one]	supppressed the induction for NO production by LPS in a concentration-dependent manner	inhibited the induction of IL-6 production by LPS in a concentration-dependent manner	33.3	48.4	65.7	77.2	–	–
CC(C)=CCCC1(C)Oc2c(C(=O)/C=C/c3ccc(O)cc3)ccc(O)c2CC1O (single isomer, unassigned) [Compound b, (E)-1-(3,4,-dihydro-3,5-dihydroxy-2-(3-isohexeneyl)-2-methyl-2H-1-benzopyran-8-yl)-3-(4-hydroxyphenyl)-2-propene-1-one]	supppressed the induction for NO production by LPS in a concentration-dependent manner	inhibited the induction of IL-6 production by LPS in a concentration-dependent manner	35.1	50.6	66.8	79.1	87.4	91.0
